Assay results from patent publication US5521173A, “Tricyclic benzazepine vasopressin antagonists” (American Home Products Corporation, priority 1995, dated 1996).

Legend:
[1] = biological target: T1, Human V2 Vasopressin Receptor (Homo sapiens, UniProt P30518); experiment: Binding to Membranes of Mouse Fibroblast Cell Line (LV-2) Transfected with the cDNA Expressing the Human V2 Vasopressin Receptor; conditions: ** LV-2 cell membranes
T1 construct: expressed in transfected cells; host or cells: mouse fibroblast cell line LV-2
T1 sequence (P30518 whole entry): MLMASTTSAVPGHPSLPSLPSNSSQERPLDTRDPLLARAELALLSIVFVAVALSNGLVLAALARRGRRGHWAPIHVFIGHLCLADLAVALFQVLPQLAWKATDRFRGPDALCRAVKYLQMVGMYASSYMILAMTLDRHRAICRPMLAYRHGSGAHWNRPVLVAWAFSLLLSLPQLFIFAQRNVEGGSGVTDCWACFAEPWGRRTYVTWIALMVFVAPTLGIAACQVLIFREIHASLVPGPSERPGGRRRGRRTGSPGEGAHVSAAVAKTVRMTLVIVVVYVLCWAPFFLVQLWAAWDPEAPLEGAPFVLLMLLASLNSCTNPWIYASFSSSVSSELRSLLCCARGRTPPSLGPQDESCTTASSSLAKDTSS
Method: (a) Membrane Preparation Flasks of 175 ml capacity, containing attached cells grown to confluence, are cleared of culture medium by aspiration. […] The content of all flasks is poured into a centrifuge tube and the cells pelleted at 300× g for 15 min. The Hank's based solution is aspirated off and the cells homogenized with a polytron at setting #6 for 10 sec in 10.0 mM Tris.HCl buffer, pH 7.4 containing 0.25M sucrose and 1.0 mM EDTA. The homogenate is centrifuged at 1500× g for 10 min to remove ghost membranes. The supernatant fluid is centrifuged at 100,000× g for 60 min to pellet the receptor protein. […] (b) Receptor Binding […] Non specific binding is assessed in the presence of 1.0 μM of unlabeled ligand, added in 20 μl volume. […] The radioactivity trapped on the filter disk by the ligand-receptor complex is assessed by liquid scintillation counting in a Packard LS Counter, with an efficiency of 65% for tritium. The data are analyzed for IC50 values by the LUNDON-2 program for competition (LUNDON SOFTWARE, Ohio).

Vasopressin V2 = Vasopressin V2 Antagonist Activity in Conscious Hydrated Rats; assay type: in vivo, rat; conditions: 10 mg/kg orally, AVP 0.4 μg/kg i.p.; for Osmolality: urine
Method: Two to four rats are used for each compound. One hour later, arginine vasopressin (AVP, antidiuretic hormore, ADH) dissolved in peanut oil is administered at 0.4 μg/kg intraperitoneally. Two rats in each test would not receive arginine vasopressin but only the vehicle (peanut oil) to serve as water-loading control. Twenty minutes later each rat is given 30 mL/kg of deionized water orally by gavage and is placed individually in a metabolic cage equipped with a funnel and a graduated glass cylinder to collect urine for four hours. Urine volume is measured and osmolality analyzed by use of a Fiske One-Ten osmometer (Fiske Assoc., Norwood, Mass., USA). Urinary sodium, potassium, and chloride are analyzed by use of ion-specific electrodes in a Beckman E3 (Electrolyte 3) Analyzer. In the following results, […] and decreased osmolality relative to AVP-control indicates activity.

oxytocin receptors = biological target: T2, oxytocin receptors (Rattus norvegicus, UniProt P70536); experiment: Oxytocin Receptor Binding; parameters: species or system rat (female Sprague-Dawley); conditions: for IC50: 1.0 nM [3H]OT
T2 construct: The uteri are dissected out, cleaned of fat and connective tissues; from tissue; host or cells: uteri of DES-treated female Sprague-Dawley rats
T2 sequence (P70536 1-388): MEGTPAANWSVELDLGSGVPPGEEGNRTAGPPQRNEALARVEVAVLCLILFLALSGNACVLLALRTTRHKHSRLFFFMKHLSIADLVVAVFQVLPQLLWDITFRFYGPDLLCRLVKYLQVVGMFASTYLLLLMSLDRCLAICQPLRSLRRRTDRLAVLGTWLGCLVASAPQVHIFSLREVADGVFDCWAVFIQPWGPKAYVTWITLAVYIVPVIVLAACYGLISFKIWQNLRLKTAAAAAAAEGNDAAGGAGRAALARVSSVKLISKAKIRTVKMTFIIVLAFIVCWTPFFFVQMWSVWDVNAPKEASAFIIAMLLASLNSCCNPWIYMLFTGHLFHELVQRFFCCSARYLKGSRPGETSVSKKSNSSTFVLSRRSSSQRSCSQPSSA
Method: Oxytocin Receptor Binding
Female Sprague-Dawley rats weighing approximately 200-250 g are injected intramuscularly (i.m.) with 0.3 mg/kg of body weight of diethylstilbestrol (DES). The rats are sacrificed 18 hours later under pentobarbital anesthesia. The uteri are dissected out, cleaned of fat and connective tissues and rinsed in 50 ml of normal saline. The tissue pooled from six rats is homogenized in 50 ml of […] Tris.HCl, containing 0.5 mM dithiothreitol and 1.0 mM EDTA, adjusted to pH 7.4, using a polytron at setting 6 with three passes of 10 sec each. The homogenate is passed through two (2) layers of cheesecloth and the filtrate centrifuged at 1000× g for 10 min. The clear supernatant is removed and recentrifuged at 165,000× g for 30 min. The resulting pellet containing the oxytocin receptors is resuspended in 50.0 mM Tris.HCl containing 5.0 mM MgCl2 at pH 7.4, to give a protein concentration of 2.5 mg/ml of tissue suspension. This preparation is used in subsequent binding assays with [^3 H]Oxytocin.
Binding of 3,5-[^3 H]Oxytocin ([^3 H]OT) to its receptors is done in microtiter plates using [^3 H]OT, at various concentrations, in an assay buffer of 50.0 mM Tris.HCl, pH 7.4 and containing 5.0 mM MgCl2, and a mixture of protease inhibitors: BSA, 0.1 mg; aprotinin, 1.0 mg; 1,10-phenanthroline, 2.0 mg; […], 10.0 mg; and PMSF, 0.3 mg per 100 ml of buffer solution. Non-specific binding is determined in the presence of 1.0 uM unlabeled OT. The binding reaction is terminated after 60 min., at 22° C., by rapid filtration through glass fiber filters using a Brandel, cell harvester (Biomedical Research and Development Laboratories,Inc., Gaithersburg, Md.). Competition experiments are conducted at equilibrium using 1.0 nM [^3 H]OT and varying the concentration of the displacing agents. The concentrations of agent displacing 50% of [^3 H]OT at its sites (IC50) are calculated by a computer assisted LUNDON-2 program (LUNDON SOFTWARE INC., Ohio, USA).

[2] = biological target: T3, Vasopressin V1 receptor subtype in Human Platelet Membranes (Homo sapiens, UniProt P37288); experiment: Binding to Vasopressin V1 receptor subtype in Human Platelet Membranes
T3 construct: tissue Hudson Valley Blood Services, Westchester Medical Center, Valhalla, N.Y; host or cells: human platelets (frozen platelet rich plasma)
T3 sequence (P37288 whole entry): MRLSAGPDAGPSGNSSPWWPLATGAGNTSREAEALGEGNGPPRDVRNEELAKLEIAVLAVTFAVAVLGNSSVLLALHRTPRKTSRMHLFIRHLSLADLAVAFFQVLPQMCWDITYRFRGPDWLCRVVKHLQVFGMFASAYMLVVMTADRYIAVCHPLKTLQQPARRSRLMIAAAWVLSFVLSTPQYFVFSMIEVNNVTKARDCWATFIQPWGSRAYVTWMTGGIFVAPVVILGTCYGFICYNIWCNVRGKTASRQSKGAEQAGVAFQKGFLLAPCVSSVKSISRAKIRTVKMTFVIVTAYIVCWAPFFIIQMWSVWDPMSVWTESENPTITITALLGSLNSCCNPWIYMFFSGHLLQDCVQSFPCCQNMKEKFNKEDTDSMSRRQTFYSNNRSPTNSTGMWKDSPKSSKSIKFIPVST
Method: Radioligand Binding Experiments with Human Platelet Membranes
(a) Platelet Membrane Preparation
Frozen platelet rich plasma (PRP), (Platelet Source: Hudson Valley Blood Services, Westchester Medical Center, Valhalla, N.Y.) are thawed to room temperature. The tubes containing the PRP are centrifuged at 16,000×g for 10 min. at 4° C. and the supernatant fluid discarded. The platelets resuspended in an equal volume of 50.0 mM Tris.HCl, pH 7.5 containing 120 mM NaCl and 20.0 mM EDTA. The suspension is recentrifuged at 16,000× g for 10 min. This washing step is repeated one more time. The wash discarded and the lysed pellets homogenized in low ionic strength buffer of Tris.HCl, 5.0 mM, pH 7.5 containing 5.0 mM EDTA. The homogenate is centrifuged at 39,000× g for 10 min. The resulting pellet is resuspended in Tris.HCl buffer, 70.0 mM, pH 7.5 and recentrifuged at 39,000× g for 10 min. The final pellet is resuspended in 50.0 mM Tris.HCl buffer pH 7.4 containing 120 mM NaCl and 5.0 mM KCl to give 1.0-2.0 mg protein per ml of suspension.
(b) Binding to Vasopressin V1 receptor subtype in Human Platelet Membranes
In wells of a 96 well format microtiter plate, add 100 μl of 50.0 mM Tris.HCl buffer containing 0.2% BSA and a mixture of protease inhibitors (aprotinin, leupeptin etc.). Then add 20 μl of [^3 H]Ligand (Manning or Arg^8 Vasopressin), to give final concentrations ranging from 0.01 to 10.0 nM. Initiate the binding by adding 80.0 μl of platelet suspension (approx. 100 μg protein). Mix all reagents by pipetting the mixture up and down a few times. Non specific binding is measured in the presence of 1.0 µM of unlabeled ligand (Manning or Arg^8 Vasopressin). Let the mixture stand undisturbed at room temperature for ninety (90) min. Upon this time, rapidly filter off the incubate under vacuum suction over GF/B filters, using a Brandel Harvester. Determine the radioactivity caught on the filter disks by the addition of liquid scintillant and counting in a liquid scintillator.

| SMILES | IC50 [1] | inhibition at 10 µM (oxytocin receptors) | IC50 (oxytocin receptors) | IC50 [2] | Urine Volume (Vasopressin V2) | Osmolality (Vasopressin V2) |
| --- | --- | --- | --- | --- | --- | --- |
| Cc1ccccc1-c1ccc(C(=O)N2Cc3cccn3Cc3ccccc32)cc1 [Example 5, 10,11-Dihydro-10-[4-(2-methylphenyl)benzoyl]-5H-pyrrolo[2,1-c][1,4]benzodiazepine] | 2000 nM |  |  | 88 nM | 7.8 ml/4 hrs | 992 mOsm/kg |
| CN(C)Cc1ccc2n1Cc1ccccc1N(C(=O)c1ccc(-c3cccs3)cc1)C2 [Example 6, 10,11-Dihydro-3-[(dimethylamino)methyl]-10-[4-(2-thienyl)benzoyl]-5H-pyrrolo[2,1-c][1,4]benzodiazepine] | 15000 nM | 100% | 330 nM | 63 nM |  |  |
| O=C(c1ccc(-c2cccs2)nc1)N1Cc2cccn2Cc2ccccc21 [Example 22] | 3600 nM | 98% | 480 nM | 960 nM |  |  |
| O=C(c1ccc(-c2cccs2)cc1)N1Cc2cccn2Cc2ccccc21 [drawing 73] | 510 nM |  |  | 13 nM |  |  |

These reach a lower IC50 [1]. Values come first.

| IC50 [1] | inhibition at 10 µM (oxytocin receptors) | IC50 (oxytocin receptors) | IC50 [2] | SMILES | Urine Volume (Vasopressin V2) | Osmolality (Vasopressin V2) |
| --- | --- | --- | --- | --- | --- | --- |
| 96 nM | 100% | 49 ± 3 nM | 64 nM | O=C(c1ccc(-c2ccccc2[N+](=O)[O-])cc1)N1Cc2cccn2Cc2ccccc21 [Example 2, 10,11-Dihydro-10-[4-(2-nitrophenyl)benzoyl]-5H-pyrrolo[2,1-c][1,4]benzodiazepine] | 5.5 ml/4 hrs | 1257 mOsm/kg |
| 58 nM | 68% |  | 12 nM | CCCc1ccc(-c2ccc(C(=O)N3Cc4cccn4Cc4ccccc43)cc2)cc1 [Example 21, 10,11-Dihydro-10-[(4'-propyl[1,1'-biphenyl]-4-yl)carbonyl]-5H-pyrrolo[2,1-c][1,4]benzodiazepine] | 4.5 ml/4 hrs | 1347 mOsm/kg |
